Reference: patent US20250090699A1, “FAP TARGETING CYCLIC PEPTIDES AND CONJUGATES THEREOF” (Novartis AG, priority 2023, published 2025)
Starred links: 1 amine or outer side, 2 acyl side, 3 side chain; linkers in the order of their positions; H or OH if unused. Non-standard residues stand in square brackets, D forms with d. Residues, ends and D or L forms follow the SMILES beside them. Groups on a side chain read outwards from the residue. *: point of attachment. DOTA = O=C(O)CN1CCN(CC(=O)O)CCN(CC(=O)*)CCN(CC(=O)O)CC1; Piperazinyl(4-CH2COOH) = O=C(O)CN1CCN(*)CC1; AEF = NCCOc1ccc(C[C@H](N)C(=O)O)cc1; X10 = O=C([C@H]1COCCN1[*:1])[*:2]; NMeF = CN[C@@H](Cc1ccccc1)C(=O)O; αMeD = C[C@](N)(CC(=O)O)C(=O)O; d(αMeP) = C[C@]1(C(=O)O)CCCN1; Ahp(2) = CCCCC[C@H](N)C(=O)O; dPip = O=C(O)[C@H]1CCCCN1; Nphe = O=C(O)CNCc1ccccc1; dNMeA = CN[C@H](C)C(=O)O; CO = O=C([*:1])[*:2]; Sar = CNCC(=O)O

Legend:
mouse FAP [1] = target: T1, mouse FAP (Mus musculus, UniProt P97321); assay: Surface plasmon resonance (SPR) for peptide affinity, mouse FAP; assay type: binding
T1 construct: biotinylated His, Avi tag, mouse FAP (26-761, FAP-M82Q5); His; Avi tag (biotinylated); purchased AcroBiosystems FAP-M82Q5
T1 sequence (P97321 26-761): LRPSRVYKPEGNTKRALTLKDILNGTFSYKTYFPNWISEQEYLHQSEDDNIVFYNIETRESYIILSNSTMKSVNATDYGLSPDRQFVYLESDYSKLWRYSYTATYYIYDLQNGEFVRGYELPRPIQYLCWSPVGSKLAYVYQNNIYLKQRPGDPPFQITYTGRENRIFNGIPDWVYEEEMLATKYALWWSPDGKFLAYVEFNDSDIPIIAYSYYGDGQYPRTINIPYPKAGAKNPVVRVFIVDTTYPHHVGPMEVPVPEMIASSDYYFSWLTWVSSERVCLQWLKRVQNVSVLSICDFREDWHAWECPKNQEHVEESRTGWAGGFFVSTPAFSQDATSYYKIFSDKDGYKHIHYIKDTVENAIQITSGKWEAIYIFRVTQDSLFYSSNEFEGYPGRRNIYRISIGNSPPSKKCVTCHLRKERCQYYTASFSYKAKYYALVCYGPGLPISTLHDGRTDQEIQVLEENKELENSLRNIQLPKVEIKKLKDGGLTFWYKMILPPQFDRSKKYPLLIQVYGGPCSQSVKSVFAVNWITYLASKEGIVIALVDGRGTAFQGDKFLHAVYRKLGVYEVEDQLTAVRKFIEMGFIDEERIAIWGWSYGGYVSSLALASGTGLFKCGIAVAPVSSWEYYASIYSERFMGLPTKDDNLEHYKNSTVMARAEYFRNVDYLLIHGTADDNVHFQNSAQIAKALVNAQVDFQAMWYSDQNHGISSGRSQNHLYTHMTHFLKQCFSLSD
How it was run: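 Biotinylated His/Avi-tagged FAP ectodomains (human 26-760, mouse 26-761) captured or immobilized on Biacore sensor chips; peptides run at 25 °C in HBS-EP+ pH 7.6 with 2% DMSO, single-cycle kinetics, 8 concentrations. KD from 1:1 binding-model fit of sensorgrams.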

human FAP = target: T2, human FAP (Homo sapiens, UniProt Q12884); assay: Enzymatic FAP competition assay (Z-Gly-Pro-AMC fluorescence), human FAP; assay type: biochemical; settings: read-out: h. FAP, Enz., IC50
T2 construct: the biotinylated His, Avi tag, human FAP (26-760, FAP-H82Q6); His; Avi tag (biotinylated); purchased AcroBiosystems FAP-H82Q6
T2 sequence (Q12884 26-760): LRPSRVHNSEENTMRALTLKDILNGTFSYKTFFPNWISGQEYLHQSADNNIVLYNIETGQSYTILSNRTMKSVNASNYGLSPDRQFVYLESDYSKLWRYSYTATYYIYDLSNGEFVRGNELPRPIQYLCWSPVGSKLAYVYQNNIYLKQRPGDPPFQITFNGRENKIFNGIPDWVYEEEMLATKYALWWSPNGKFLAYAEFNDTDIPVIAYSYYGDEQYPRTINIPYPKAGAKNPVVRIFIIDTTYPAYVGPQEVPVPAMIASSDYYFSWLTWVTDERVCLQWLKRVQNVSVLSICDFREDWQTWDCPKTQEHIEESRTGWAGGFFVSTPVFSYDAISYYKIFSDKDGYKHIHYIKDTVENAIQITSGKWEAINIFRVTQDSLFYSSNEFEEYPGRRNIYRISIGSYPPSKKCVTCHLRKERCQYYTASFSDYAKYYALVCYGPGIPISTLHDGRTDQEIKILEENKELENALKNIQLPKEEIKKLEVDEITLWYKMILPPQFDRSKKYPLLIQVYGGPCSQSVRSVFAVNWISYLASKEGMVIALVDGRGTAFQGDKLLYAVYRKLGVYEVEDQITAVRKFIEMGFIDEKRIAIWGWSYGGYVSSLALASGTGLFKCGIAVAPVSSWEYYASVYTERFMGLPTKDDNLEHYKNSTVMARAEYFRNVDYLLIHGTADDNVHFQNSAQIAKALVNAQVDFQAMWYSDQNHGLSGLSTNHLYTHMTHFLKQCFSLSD
How it was run: (§1)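 Biotinylated His/Avi-tagged FAP ectodomain (human 26-760, mouse 26-761) at 0.01 nM, preincubated 24 h with peptides (14 concentrations, up to 1 μM) in pH 7.5 phosphate, 150 mM NaCl, 0.05% Tween20, 1% DMSO. Then 50 μM Z-Gly-Pro-AMC, 4 h at 22-24° C; AMC fluorescence (380/460 nm) gave IC50 from duplicate points.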

mouse FAP [2] = target: T1, mouse FAP; assay: Enzymatic FAP competition assay (Z-Gly-Pro-AMC fluorescence), mouse FAP; assay type: biochemical; settings: read-out: m. FAP, Enz., IC50
How it was run: as §1

Structure (SMILES)	Kd (mouse FAP [1])	IC50 (human FAP)	IC50 (mouse FAP [2])
CCCCC[C@@H]1NC(=O)[C@H](Cc2ccc(O)cc2)NC(=O)[C@H](Cc2ccccc2)N(C)C(=O)CNC(=O)CNC(=O)[C@H]2COCCN2C(=O)[C@H](CC(=O)O)NC(=O)[C@H](Cc2ccc(O)cc2)NC(=O)CNC(=O)[C@H](Cc2c[nH]c3ccccc23)NC1=O [Example A63, Gly-Gly-NMePhe-Tyr-Ahp-Trp-Gly-Tyr-Asp-Mor(3R-COOH)] (cyclo([Ahp(2)]WGYD[X10]GG[NMeF]Y))	20 nM	15 nM	55 nM
CCCCC[C@@H]1NC(=O)[C@H](Cc2ccc(O)cc2)NC(=O)[C@H](Cc2ccccc2)N(C)C(=O)CNC(=O)CNC(=O)[C@H]2CCCN2C(=O)[C@H](CC(=O)O)NC(=O)[C@H](Cc2ccc(O)cc2)NC(=O)[C@@H](C)NC(=O)[C@H](Cc2c[nH]c3ccccc23)NC1=O [Example A64, Gly-Gly-NMePhe-Tyr-Ahp-Trp-D-Ala-Tyr-Asp-D-Pro] (cyclo([Ahp(2)]W[dA]YD[dP]GG[NMeF]Y))	3.6 nM	2.4 nM	4.1 nM
CCCCC[C@@H]1NC(=O)[C@H](Cc2ccc(O)cc2)NC(=O)[C@H](Cc2ccccc2)N(C)C(=O)CNC(=O)CNC(=O)[C@@H](C)N(C)C(=O)[C@H](CC(=O)O)NC(=O)[C@H](Cc2ccc(O)cc2)NC(=O)CNC(=O)[C@H](Cc2c[nH]c3ccccc23)NC1=O [Example A65, Gly-Gly-NMePhe-Tyr-Ahp-Trp-Gly-Tyr-Asp-D-NMeA] (cyclo([Ahp(2)]WGYD[dNMeA]GG[NMeF]Y))	1.8 nM	0.34 nM	2.8 nM
CCCCC[C@@H]1NC(=O)[C@H](Cc2ccc(O)cc2)NC(=O)[C@H](Cc2ccccc2)N(C)C(=O)CNC(=O)CNC(=O)[C@H]2CCCCN2C(=O)[C@H](CC(=O)O)NC(=O)[C@H](Cc2ccc(O)cc2)NC(=O)CNC(=O)[C@H](Cc2c[nH]c3ccccc23)NC1=O [Example A66, Gly-Gly-NMePhe-Tyr-Ahp-Trp-Gly-Tyr-Asp-Pi(2R-COOH)] (cyclo([Ahp(2)]WGYD[dPip]GG[NMeF]Y))	0.46 nM	0.27 nM	1.2 nM
CCCCC[C@@H]1NC(=O)[C@H](Cc2ccc(O)cc2)NC(=O)[C@H](Cc2ccccc2)N(C)C(=O)[C@@H](CO)NC(=O)CNC(=O)[C@H]2CCCN2C(=O)[C@H](CC(=O)O)NC(=O)[C@H](Cc2ccc(O)cc2)NC(=O)CNC(=O)[C@H](Cc2c[nH]c3ccccc23)NC1=O [Example A67, Gly-D-Ser-NMePhe-Tyr-Ahp-Trp-Gly-Tyr-Asp-D-Pro] (cyclo([Ahp(2)]WGYD[dP]G[dS][NMeF]Y))	208 nM	76 nM	252 nM
CCCCC[C@@H]1NC(=O)[C@H](Cc2ccc(O)cc2)NC(=O)[C@H](Cc2ccccc2)N(C)C(=O)CNC(=O)CNC(=O)CN(C)C(=O)[C@H](CC(=O)O)NC(=O)[C@H](Cc2ccc(O)cc2)NC(=O)CNC(=O)[C@H](Cc2c[nH]c3ccccc23)NC1=O [Example A68, Gly-Gly-NMePhe-Tyr-Ahp-Trp-Gly-Tyr-Asp-NMeGly] (cyclo([Ahp(2)]WGYD[Sar]GG[NMeF]Y))	35 nM	12 nM	80 nM
CCCCC[C@@H]1NC(=O)[C@H](Cc2ccc(O)cc2)NC(=O)[C@H](Cc2ccccc2)N(C)C(=O)CNC(=O)[C@@H](CO)NC(=O)[C@H]2CCCN2C(=O)[C@H](CC(=O)O)NC(=O)[C@H](Cc2ccc(O)cc2)NC(=O)CNC(=O)[C@H](Cc2c[nH]c3ccccc23)NC1=O [Example A69, D-Ser-Gly-NMePhe-Tyr-Ahp-Trp-Gly-Tyr-Asp-D-Pro] (cyclo([Ahp(2)]WGYD[dP][dS]G[NMeF]Y))	0.222 nM	0.121 nM	0.47 nM
CCCCC[C@@H]1NC(=O)[C@H](Cc2ccc(O)cc2)NC(=O)[C@H](Cc2ccccc2)N(C)C(=O)CNC(=O)CNC(=O)[C@@]2(C)CCCN2C(=O)[C@H](CC(=O)O)NC(=O)[C@H](Cc2ccc(O)cc2)NC(=O)CNC(=O)[C@H](Cc2c[nH]c3ccccc23)NC1=O [Example A70, Gly-Gly-NMePhe-Tyr-Ahp-Trp-Gly-Tyr-Asp-D-aMeP] (cyclo([Ahp(2)]WGYD[d(αMeP)]GG[NMeF]Y))	0.104 nM	0.036 nM	0.116 nM
CCCCC[C@@H]1NC(=O)[C@H](Cc2ccc(O)cc2)NC(=O)[C@H](Cc2ccccc2)N(C)C(=O)CNC(=O)CNC(=O)[C@H]2CCCN2C(=O)[C@H](CCC(=O)O)NC(=O)[C@H](Cc2ccc(O)cc2)NC(=O)CNC(=O)[C@H](Cc2c[nH]c3ccccc23)NC1=O [Example A71, Gly-Gly-NMePhe-Tyr-Ahp-Trp-Gly-Tyr-Glu-D-Pro] (cyclo([Ahp(2)]WGYE[dP]GG[NMeF]Y))	0.242 nM	0.69 nM	0.61 nM
CCCCC[C@@H]1NC(=O)[C@H](Cc2ccc(O)cc2)NC(=O)[C@H](Cc2ccccc2)N(C)C(=O)CNC(=O)CNC(=O)[C@H]2CCCN2C(=O)[C@](C)(CC(=O)O)NC(=O)[C@H](Cc2ccc(O)cc2)NC(=O)CNC(=O)[C@H](Cc2c[nH]c3ccccc23)NC1=O [Example A72, Gly-Gly-NMePhe-Tyr-Ahp-Trp-Gly-Tyr-aMeD-D-Pro] (cyclo([Ahp(2)]WGY[αMeD][dP]GG[NMeF]Y))	> 6000 nM	237 nM	1000 nM
CCCCC[C@@H]1NC(=O)[C@H](Cc2ccc(O)cc2)NC(=O)[C@H](Cc2ccccc2)N(C)C(=O)CNC(=O)CN(C)C(=O)[C@H]2CCCN2C(=O)[C@H](CC(=O)O)NC(=O)[C@H](Cc2ccc(O)cc2)NC(=O)CNC(=O)[C@H](Cc2c[nH]c3ccccc23)NC1=O [Example A73, 2-((9S,12S,15S,18S,24S,27S,32aR)-18-((1H-indol-3-yl)methyl)-9-benzyl-12,24-bis(4-hydroxybenzyl)-2,8-dimethyl-1,4,7,10,13,16,19,22,25,28-decaoxo-15-pentyldotriacontahydropyrrolo[1,2-a][1,4,7,10,13,16,19,22,25,28]decaazacyclotriacontin-27-yl)acetic acid] (cyclo([Ahp(2)]WGYD[dP][Sar]G[NMeF]Y))	0.081 nM	0.028 nM	0.101 nM
CCCCC[C@@H]1NC(=O)[C@H](Cc2ccc(O)cc2)NC(=O)[C@H](Cc2ccccc2)N(C)C(=O)CNC(=O)CNC(=O)[C@H]2CCCN2C(=O)[C@H](CC(=O)O)NC(=O)CN(Cc2ccccc2)C(=O)CNC(=O)[C@H](Cc2c[nH]c3ccccc23)NC1=O [Example A74, Gly-Gly-NMePhe-Tyr-Ahp-Trp-Gly-NBnG-Asp-D-Pro] (cyclo(GG[NMeF]Y[Ahp(2)]WG[Nphe]D[dP]))	4.6 nM	1.4 nM	3.3 nM
CCCCC[C@@H]1NC(=O)[C@H](Cc2ccc(OCCNC(=O)CN3CCN(CC(=O)O)CCN(CC(=O)O)CCN(CC(=O)O)CC3)cc2)NC(=O)[C@H](Cc2ccccc2)N(C)C(=O)CNC(=O)CNC(=O)[C@H]2CCCN2C(=O)[C@H](CC(=O)O)NC(=O)[C@H](CCCCNC(=O)N2CCN(CC(=O)O)CC2)NC(=O)CNC(=O)[C@H](Cc2c[nH]c3ccccc23)NC1=O [Example B3, Gly-Gly-NMePhe-F(4OEtNHDOTA)-Ahp-Trp-Gly-K(COpipzaa)-Asp-D-Pro] (cyclo([AEF](DOTA)[Ahp(2)]WGK([CO-Piperazinyl(4-CH2COOH)])D[dP]GG[NMeF]))	0.093 nM	0.025 nM	0.091 nM
